How the values were obtained:
patients with TRD = assay: Sedation by MOAA/s in SPRAVATO clinical trials (label); type: in vivo, human; settings: after dosing
Procedure: In clinical trials, 49% to 61% of SPRAVATO-treated patients developed sedation based on the Modified Observer's Alertness/Sedation scale (MOAA/s) [see Adverse Reactions (6.1)], and 0.3% of SPRAVATO-treated patients experienced loss of consciousness (MOAA/s score of 0).
Sedation was evaluated by adverse event reports and using the Modified Observer's Alertness/Sedation scale (MOAA/s). In the MOAA/s scale, 5 means “responds readily to name spoken in normal tone” and 0 means “no response after painful trapezius squeeze.” Any decrease in MOAA/s from pre-dose is considered to indicate presence of sedation, and such a decrease occurred in a higher number of patients on esketamine than placebo during the short-term trials (Table 4).

adult subjects with TRD = settings: post dose
Procedure: Blood pressure and pulse/heart rate measurements were assessed supine with a completely automated device. Manual techniques were used only if an automated device is not available. Blood pressure and pulse/heart rate measurements were preceded by at least 5 minutes of rest in a quiet setting without distractions (e.g., television, cell phones).
Descriptive statistics of temperature, pulse/heart rate, respiratory rate, pulse oximetry, and blood pressure (systolic and diastolic) (supine) values and changes from baseline were summarized at each scheduled time point. The percentage of subjects with values beyond clinically important limits were summarized.

CN[C@]1(c2ccccc2Cl)CCCCC1=O [esketamine, (S)-2-(2-chlorophenyl)-2-(methylamino)cyclohexanone]
Sedative effects typically resolved by (patients with TRD): ≤ 1.5 h | Blood pressure returned to normal range at (adult subjects with TRD): 90 min | Time of peak of transient blood pressure increases (adult subjects with TRD): approximately 40 minutes | Inhibition potential against CYPs and UGTs (CYPs and UGTs): did not show inhibition potential

Reference: US11980596B2 (priority 2017, dated 2024)
